Test results reported in patent publication US20150133497A1, “GLYCINE REUPTAKE INHIBITOR AND USE THEREOF” (Beijing Medisan Technology Co., Ltd., priority 2011, published 2015).

Columns and labels:
[1] = tested on: spontaneous activity in rats; assay: Effect of test compound on spontaneous activity in rats (LMA); format: in vivo, Wistar rats; details: 5.0, 10 and 30 mg/kg i.p.; 60 minutes after administration; recorded 30-60 minutes; P>0.05, Dunnett's test
Procedure: (§1) Animals used for experiments were adult male Wistar rats weighing 180˜250 g, housed in groups of 6/cages, regulated with a 12/12 hour light/dark cycle, maintained at a constant temperature of 23±1° C. and a humidity of 50˜60% and allowed ad libitum access to rodent chow and water. After animals were purchased from the Experimental Animal Center, an adaptive housing was performed for a week, all the animals were randomly divided into two groups:
(§2) Group one: negative control group, intraperitoneally injected with 1% DMSO in physiological saline (10.0 ml/kg, i.p.);
Group two: experimental drug group, the rats were intraperitoneally injected respectively with different doses of test compound Co. 1: 5.0, 10 and 30 mg/kg, i.p., the drug was formulated in 1% DMSO in physiological saline.
The experiment employed Shanghai Jiliang animal behavior video analysis system, wherein the experimental environment was kept absolutely silent, when grabbing animals and administrating, movements were gentle to minimize adverse reactions of mental condition and emotion brought by external stimulus. […] The spontaneous activity box was connected to a recording apparatus and the activity conditions of rats were recorded for 30-60 minutes. The effect of drug or control on spontaneous activity in rats was determined.

[2] = tested on: high-activity behaviors in rats induced by PCP; assay: Effect on high-activity behaviors in rats induced by PCP; format: in vivo, Wistar rats; details: for inhibition of high-activity behaviors in rats induced by PCP: Co. 1 5, 10 and 30 mg/kg i.p., Olanzepine 10 mg/kg i.p., PCP 5.0 mg/kg s.c., P<0.01 vs PCP group
Procedure: as §1, with “in group” for “in groups”, “into three” for “into two”
Group 1: negative control group, intraperitoneally injected with 1% DMSO in physiological saline (10.0 ml/kg, i.p.);
Group 2: experimental drug group, the rats were intraperitoneally injected respectively with different doses of test compound Co. 1: 5.0, 10 and 30 mg/kg, i.p., the drug was formulated in 1% DMSO in physiological saline.
Group 3: positive drug control group, the rats were intraperitoneally injected with Olanzepine (10 mg/kg, i.p., the drug was formulated in 1% DMSO in physiological saline)
The experiment employed Shanghai Jiliang animal behavior video analysis system, wherein the experimental environment was kept absolutely silent, when grabbing animals and administrating, movements were gentle to minimize adverse reactions of mental condition and emotion brought by external stimulus. The rats were moved from the animal room to a quiet lab and adapted for at least two hours. Subcutaneous injection of PCP (5.0 mg/kg, s.c.), or 1% DMSO in physiological saline as control, was administrated. 30 minutes later, the animals were intraperitoneally injected with the test compound, or 1% DMSO in physiological saline as control. The rats were placed in a spontaneous activity box, which was placed in an absolutely silent environment. The spontaneous activity box was connected to a recording apparatus and the activity conditions of rats were recorded for 30-60 minutes. The effect of drug or control on spontaneous activity in […] was determined.

[3] = tested on: high-activity behaviors in rats induced by Amphetamine; assay: Effect on high-activity behaviors in rats induced by Amphetamine; format: in vivo, Wistar rats; details: for inhibition of high-activity behaviors in rats induced by Amphetamine: Co. 1 5, 10 and 30 mg/kg i.p., Olanzepine 10 mg/kg i.p., Amphetamine 1.0 mg/kg s.c., P<0.01 vs Amphetamine group
Procedure: as §1, with “in group” for “in groups”, “into three” for “into two”
as §2
Group two: experimental drug group, the rats were intraperitoneally injected respectively with different amounts of test compound Co. 1: 5, 10 and 30 mg/kg, i.p., the drug was formulated in 1% DMSO in physiological saline.
Group three: positive drug control group, the rats were intraperitoneally injected with Olanzepine (10 mg/kg, i.p., the drug was formulated in 1% DMSO in physiological saline)
The experiment employed Shanghai Jiliang animal behavior video analysis system, wherein the experimental environment was kept absolutely silent, when grabbing animals and administrating, movements were gentle to minimize adverse reactions of mental condition and emotion brought by external stimulus. The rats were moved from the animal room to a quiet lab and adapted for at least two hours. Subcutaneous injection of Amphetamine (1.0 mg/kg, s.c.), or 1% DMSO in physiological saline as control, was administrated. 30 minutes later, the animals were orally administrated of the compound, or physiological saline as control. The rats were placed in a spontaneous activity box, which was placed in an absolutely silent environment. The spontaneous activity box was connected to a recording apparatus and the activity conditions of rats were recorded for 30-60 minutes. The effect of drug or control on spontaneous activity in rats was determined.

[4] = molecular target: T1, GlyT1 (Homo sapiens, UniProt P48067); assay: Anti-glycine reuptake activity, GlyT1; format: cell-based; details: listed as head criterion > 6; mean of three experiments; read-out: GlyT1 pEC50 (converted)
T1 sequence (P48067 1-706): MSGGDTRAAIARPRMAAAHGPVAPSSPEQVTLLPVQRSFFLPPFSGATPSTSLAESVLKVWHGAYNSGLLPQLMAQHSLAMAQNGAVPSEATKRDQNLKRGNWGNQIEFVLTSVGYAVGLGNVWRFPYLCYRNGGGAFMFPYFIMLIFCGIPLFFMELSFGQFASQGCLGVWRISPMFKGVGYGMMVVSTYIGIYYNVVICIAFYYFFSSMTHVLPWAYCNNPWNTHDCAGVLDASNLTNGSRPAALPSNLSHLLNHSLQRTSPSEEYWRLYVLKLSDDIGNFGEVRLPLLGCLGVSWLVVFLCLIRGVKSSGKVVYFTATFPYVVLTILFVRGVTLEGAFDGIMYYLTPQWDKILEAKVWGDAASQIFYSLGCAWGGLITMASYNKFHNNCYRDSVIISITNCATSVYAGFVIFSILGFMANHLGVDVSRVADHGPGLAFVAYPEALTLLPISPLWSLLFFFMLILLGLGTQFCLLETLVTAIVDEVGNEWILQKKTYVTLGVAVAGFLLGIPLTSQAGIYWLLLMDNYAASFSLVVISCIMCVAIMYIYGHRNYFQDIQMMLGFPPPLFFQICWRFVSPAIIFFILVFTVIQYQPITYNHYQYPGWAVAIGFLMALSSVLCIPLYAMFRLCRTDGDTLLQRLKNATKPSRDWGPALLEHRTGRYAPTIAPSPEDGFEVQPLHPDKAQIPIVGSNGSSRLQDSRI
Source text: (§3) methods commonly used in the art were employed to determine the anti-glycine reuptake activity of the compound of the present invention. The experiment was repeated for three times and the mean value was taken.

[5] = molecular target: T2, G1yT2 (Homo sapiens, UniProt Q9Y345); assay: Selectivity vs GlyT2; format: cell-based; details: listed as head criterion >10 × vs G1yT2
T2 sequence (Q9Y345 1-797): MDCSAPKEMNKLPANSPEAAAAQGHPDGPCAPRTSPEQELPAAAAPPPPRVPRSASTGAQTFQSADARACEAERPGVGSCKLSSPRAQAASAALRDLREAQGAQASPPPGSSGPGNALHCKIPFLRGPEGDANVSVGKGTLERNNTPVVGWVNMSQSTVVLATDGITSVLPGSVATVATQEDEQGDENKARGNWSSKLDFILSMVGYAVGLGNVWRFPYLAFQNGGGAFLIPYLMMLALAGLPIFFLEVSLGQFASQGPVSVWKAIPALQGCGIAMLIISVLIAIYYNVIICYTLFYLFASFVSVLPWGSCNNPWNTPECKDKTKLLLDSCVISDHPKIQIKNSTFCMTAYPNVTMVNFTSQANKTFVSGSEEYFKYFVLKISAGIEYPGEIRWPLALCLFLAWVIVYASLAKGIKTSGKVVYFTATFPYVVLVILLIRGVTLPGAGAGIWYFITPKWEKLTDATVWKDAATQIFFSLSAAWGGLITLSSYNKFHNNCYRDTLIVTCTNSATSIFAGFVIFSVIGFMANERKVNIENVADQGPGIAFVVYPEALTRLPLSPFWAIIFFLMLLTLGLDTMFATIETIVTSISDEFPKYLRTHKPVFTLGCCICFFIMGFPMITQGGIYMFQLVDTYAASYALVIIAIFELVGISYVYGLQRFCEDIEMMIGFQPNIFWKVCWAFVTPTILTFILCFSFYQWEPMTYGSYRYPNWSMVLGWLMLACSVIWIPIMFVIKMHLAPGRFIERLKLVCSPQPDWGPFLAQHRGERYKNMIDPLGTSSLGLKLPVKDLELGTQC
Source text: as §3

[6] = molecular target: NET (Homo sapiens, UniProt P23975); assay: Selectivity, NET; format: cell-based; details: read-out: Selectivity NET pEC50 (converted)
Sequence of NET (P23975 whole entry): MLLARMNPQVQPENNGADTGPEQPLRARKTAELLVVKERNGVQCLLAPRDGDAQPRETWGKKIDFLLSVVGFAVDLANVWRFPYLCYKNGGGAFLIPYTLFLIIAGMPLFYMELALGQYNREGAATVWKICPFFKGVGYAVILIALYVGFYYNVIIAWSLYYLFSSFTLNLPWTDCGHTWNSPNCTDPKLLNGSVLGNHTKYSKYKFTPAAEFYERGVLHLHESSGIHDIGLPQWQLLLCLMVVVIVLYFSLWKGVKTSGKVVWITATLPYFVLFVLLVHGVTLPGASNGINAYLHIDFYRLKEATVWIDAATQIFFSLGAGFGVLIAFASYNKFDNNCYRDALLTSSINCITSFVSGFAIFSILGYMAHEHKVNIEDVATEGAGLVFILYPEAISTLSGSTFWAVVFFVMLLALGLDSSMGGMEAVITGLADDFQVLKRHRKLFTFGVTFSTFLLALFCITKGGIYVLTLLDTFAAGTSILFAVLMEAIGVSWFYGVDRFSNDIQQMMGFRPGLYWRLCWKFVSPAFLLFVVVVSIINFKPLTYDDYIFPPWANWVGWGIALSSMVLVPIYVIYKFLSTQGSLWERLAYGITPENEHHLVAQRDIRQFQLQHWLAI

[7] = in vitro; format: in vitro ADME; details: microsomes
Source text: as §3

[8] = Measured Clint, R-heps (hepatocytes); format: in vitro ADME, rat
[9] = Rat PK; format: in vivo
[10] = Cmax in rat CSF; format: in vivo; details: sc, 10 mg/kg s.c.
[11] = molecular target: hERG (Homo sapiens, UniProt Q12809); assay: hERG (pKi); format: binding
Sequence of hERG (Q12809 whole entry): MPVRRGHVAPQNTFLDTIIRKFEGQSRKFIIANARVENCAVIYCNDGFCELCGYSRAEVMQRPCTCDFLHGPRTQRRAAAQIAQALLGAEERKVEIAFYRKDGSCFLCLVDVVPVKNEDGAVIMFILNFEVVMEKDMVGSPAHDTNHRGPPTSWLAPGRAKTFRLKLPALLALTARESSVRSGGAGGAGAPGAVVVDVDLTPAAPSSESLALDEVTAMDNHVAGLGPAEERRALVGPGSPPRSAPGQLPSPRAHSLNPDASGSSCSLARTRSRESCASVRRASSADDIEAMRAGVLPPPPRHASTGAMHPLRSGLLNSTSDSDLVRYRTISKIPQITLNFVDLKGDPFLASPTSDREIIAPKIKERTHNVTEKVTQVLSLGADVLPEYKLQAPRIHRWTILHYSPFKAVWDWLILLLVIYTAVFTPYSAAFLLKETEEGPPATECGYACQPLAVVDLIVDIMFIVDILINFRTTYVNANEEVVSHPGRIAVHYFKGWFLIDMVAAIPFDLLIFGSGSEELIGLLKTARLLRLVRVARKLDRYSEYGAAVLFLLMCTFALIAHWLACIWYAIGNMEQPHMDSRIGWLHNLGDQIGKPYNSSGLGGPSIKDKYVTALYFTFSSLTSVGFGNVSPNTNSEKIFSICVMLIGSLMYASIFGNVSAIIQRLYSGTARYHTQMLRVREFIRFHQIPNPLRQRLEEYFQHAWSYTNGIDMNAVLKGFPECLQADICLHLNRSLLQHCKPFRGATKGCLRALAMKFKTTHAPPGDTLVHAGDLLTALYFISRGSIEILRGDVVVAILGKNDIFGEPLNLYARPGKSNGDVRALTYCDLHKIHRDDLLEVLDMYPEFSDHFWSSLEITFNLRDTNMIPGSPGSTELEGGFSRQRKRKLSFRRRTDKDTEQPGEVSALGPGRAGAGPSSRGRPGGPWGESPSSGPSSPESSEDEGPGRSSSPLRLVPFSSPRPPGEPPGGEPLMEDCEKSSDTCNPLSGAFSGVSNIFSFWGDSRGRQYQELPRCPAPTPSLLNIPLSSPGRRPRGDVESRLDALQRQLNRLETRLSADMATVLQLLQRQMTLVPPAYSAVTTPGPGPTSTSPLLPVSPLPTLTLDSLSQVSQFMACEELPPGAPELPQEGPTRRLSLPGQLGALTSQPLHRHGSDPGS

Cc1cc(C(=O)N[C@@H](CN2CCCCC2)C(C)C)cc(-c2ccccc2C(F)(F)F)n1 [Co. 1]
effect on spontaneous activity in rats [1]: no significant effect | inhibition of high-activity behaviors in rats induced by PCP [2]: significantly inhibited | inhibitory effect on PCP-induced high-activity behaviors compared with the positive drug Olanzepine ([2]; P<0.05, Dunnett's test, compared with the Olanzepine/PCP group): stronger | inhibition of high-activity behaviors in rats induced by Amphetamine [3]: significantly inhibited | inhibitory effect on Amphetamine-induced high-activity behaviors compared with the positive drug Olanzepine ([3]; P<0.05, Dunnett's test, compared with the Olanzepine/Amphetamine group): stronger

CCC(C)[C@@H](CN1CCCCC1)NC(=O)c1cc(C)nc(-c2cc(C)ccc2C(F)(F)F)c1 (some centres unmarked) [Co. 2]
EC50 [4]: 0.0631 µM | G1yT2 effect at 10-5 M [5]: 14% @ 10-5 M | EC50 [6]: 0.316 µM | microsomal CLint ([7]; human): 135 µL/min/mg | microsomal CLint ([7]; rat): 81 µL/min/mg | Measured Clint R-heps [8]: R-heps 15 ul/ml/106 cells | Rat PK C1 [9]: 52 mL/min/kg | Rat PK P [9]: < 1% | Cmax [10]: 60 nM | Ki [11]: 12.6 µM

Cc1cc2c(s1)Nc1ccccc1N=C2N1CCN(C)CC1 [Olanzepine, reference compound]
inhibition of high-activity behaviors in rats induced by PCP [2]: significantly inhibited | inhibition of high-activity behaviors in rats induced by Amphetamine [3]: significantly inhibited
